The structures appear in SMILES notation. In brackets after ≈: the same amount, converted by molar mass.

A word on the IC50: it is the concentration that inhibits the measured activity by half.

One assay deals with leishmania. The experiment in a line: antileishmanial activity measurement (leishmania culture, Tetracolor ONE, OD 450-630 nm). In kind it is cell-based. The following applies: leishmania culture 2×10^5/ml, 27° C., 5% CO2, 48 hours, then Tetracolor ONE 6 hours; mean of 3 wells. An excerpt:
A hexane extract from Lithospermi Radix (obtained by the method used for Reference example 1), a hexane extract from a mixture of Lithospermi Radix and Angelicae Radix (obtained by the method used for Reference example 2), shikonin (Nagara Science), acetylshikonin (Nagara Science), β,β-dimethylacrylshikonin (Nagara Science), isobutyrylshikonin (Nagara Science), α-methyl-n-butyrylshikonin (Nagara Science), isovalerylshikonin (Nagara Science), β-hydroxyisovalerylshikonin (Nagara Science), and alkanine (Wako Pure Chemical Industries, Ltd.) were subjected to antileishmanial activity measurement.
First, 1 to 5 mg of each sample was dissolved in dimethylsulfoxide (DMSO) such that DMSO solutions (10 mg/ml) were prepared. Then, the solutions were diluted with Medium 199 (800 μg/ml) and allowed to pass through a membrane filter. The resulting test solutions were adjusted to 9 different concentrations. The test solutions (50 μl) at different concentrations and a leishmania culture solution (50 μl) that had been adjusted to a final concentration of 2×10^5/ml were introduced into wells of a microtiter plate such that the total volume of each culture solution was 100 μl in each well. After incubation at 27° C. in the presence of 5% CO2 for 48 hours, 10 μl of a Tetracolor ONE reagent was added thereto, followed by incubation for 6 hours. Thereafter, the OD value (450-630 nm) was measured using a microplate reader. Each sample at each concentration (3 wells) was subjected to measurement such that the mean value was obtained. Then, a graph was created such that the IC50 value was obtained.
`CC(C)=CCC(OC(=O)CC(C)C)C1=CC(=O)c2c(O)ccc(O)c2C1=O` (centres unmarked) [Isovalerylshikonin, isovalerylshikonin] showed a half-maximal inhibitory concentration (IC50) of 0.02 µg/mL (≈ 0.0537 µM).
Still for that read-out and setting: in the case of `CC(C)=CC[C@@H](OC(=O)C(C)C)C1=CC(=O)c2c(O)ccc(O)c2C1=O` [Isobutyrylshikonin, isobutyrylshikonin] it was 0.017 µg/mL (≈ 0.0474 µM); in that of `CCC(C)C(=O)OC(CC=C(C)C)C1=CC(=O)c2c(O)ccc(O)c2C1=O` (stereo not drawn) [α-methyl-n-butyrylshikonin], 0.014 µg/mL (≈ 0.0376 µM); in that of `CC(=O)O[C@H](CC=C(C)C)C1=CC(=O)c2c(O)ccc(O)c2C1=O` [Acetylshikonin, acetylshikonin], 0.026 µg/mL (≈ 0.0787 µM).
Same read-out and setting: in the case of `CC(C)=CC[C@@H](OC(=O)CC(C)(C)O)C1=CC(=O)c2c(O)ccc(O)c2C1=O` [β-hydroxyisovalerylshikonin] it was 0.19 µg/mL (≈ 0.489 µM).
The same measure, in the same setting: in the case of `CC(C)=CCC(OC(=O)C=C(C)C)C1=CC(=O)c2c(O)ccc(O)c2C1=O` (stereo not drawn) [β,β-dimethylacrylshikonin] it was 0.014 µg/mL (≈ 0.0378 µM); in that of `CC(C)=CC[C@@H](O)C1=CC(=O)c2c(O)ccc(O)c2C1=O` [Shikonin, shikonin], 0.09 µg/mL (≈ 0.312 µM).

Still in this assay, the particulars now being: leishmania culture 2×10^5/ml, 27° C., 5% CO2, 48 hours, then Tetracolor ONE 6 hours; mean of 3 wells; read-out: IC50.
As to `CC(C)=CC[C@H](O)C1=CC(=O)c2c(O)ccc(O)c2C1=O` [Alkanine, alkanine], the half-inhibitory concentration (IC50) worked out at 0.028 µg/mL (≈ 0.0971 µM).
